One series deals with PANC-1 pERK. Briefly: Phospho-ERK 1/2 assay. The format is cell-based. To be noted: PANC-1 cells, 3 hours incubation with compound. As to the method: Allow PNAC-1 cell growth in a T75 flask in DMEM and 10% 1 fetal calf serum (FCS; Gibco®), using standard tissue culture procedures until ~80% confluency is achieved. Day 1, seed 6000 cells/well in 384 well plate and incubate at 37° C., 5% CO2. Add diluted compound by Echo 550, final DMSO is 0.5%, incubate cells at 37° C., 5% CO2 for 3 hours. Then, remove medium and fix cells with 3.7% formaldehyde in PBS (PFA) by Apricot. Wash with PBS once. Permeabilize cells with cold 100% methanol and repeat wash once with PBS once. Add Li-Cor blocking buffer to each well and incubate 1.5 hours at RT. Remove blocking buffer and add primary antibody mixture (rabbit anti pERK, mouse anti GAPDH). Incubate at 4° C. overnight. Day 2, wash with PBST (Tween-20 in PBS) with total 3 times and then add secondary antibody mixture (goat anti rabbit 800CW (1:800 dilution in the combined solution) and goat anti mouse 680RD (1:800 dilution in the combined solution)), incubate for 60 minutes at RT away from light. Repeat washing with PBST 3 times. After final wash, centrifuge plate up-side-down at 1000 rpm to remove wash solution completely from wells. Before plate scanning, clean the bottom plate surface and the Odyssey® Imager scanning bed (if applicable) with moist, lint-free tissue to avoid any obstructions during scanning. Scan plate with detection in both 700 and 800 nm channels.

In another series the target is T1, P-glycoprotein (Pgp) (Homo sapiens, UniProt P08183).
T1 construct: expressed in transfected cells; host or cells: MDCK-MDR1 cells
T1 sequence (P08183 whole entry): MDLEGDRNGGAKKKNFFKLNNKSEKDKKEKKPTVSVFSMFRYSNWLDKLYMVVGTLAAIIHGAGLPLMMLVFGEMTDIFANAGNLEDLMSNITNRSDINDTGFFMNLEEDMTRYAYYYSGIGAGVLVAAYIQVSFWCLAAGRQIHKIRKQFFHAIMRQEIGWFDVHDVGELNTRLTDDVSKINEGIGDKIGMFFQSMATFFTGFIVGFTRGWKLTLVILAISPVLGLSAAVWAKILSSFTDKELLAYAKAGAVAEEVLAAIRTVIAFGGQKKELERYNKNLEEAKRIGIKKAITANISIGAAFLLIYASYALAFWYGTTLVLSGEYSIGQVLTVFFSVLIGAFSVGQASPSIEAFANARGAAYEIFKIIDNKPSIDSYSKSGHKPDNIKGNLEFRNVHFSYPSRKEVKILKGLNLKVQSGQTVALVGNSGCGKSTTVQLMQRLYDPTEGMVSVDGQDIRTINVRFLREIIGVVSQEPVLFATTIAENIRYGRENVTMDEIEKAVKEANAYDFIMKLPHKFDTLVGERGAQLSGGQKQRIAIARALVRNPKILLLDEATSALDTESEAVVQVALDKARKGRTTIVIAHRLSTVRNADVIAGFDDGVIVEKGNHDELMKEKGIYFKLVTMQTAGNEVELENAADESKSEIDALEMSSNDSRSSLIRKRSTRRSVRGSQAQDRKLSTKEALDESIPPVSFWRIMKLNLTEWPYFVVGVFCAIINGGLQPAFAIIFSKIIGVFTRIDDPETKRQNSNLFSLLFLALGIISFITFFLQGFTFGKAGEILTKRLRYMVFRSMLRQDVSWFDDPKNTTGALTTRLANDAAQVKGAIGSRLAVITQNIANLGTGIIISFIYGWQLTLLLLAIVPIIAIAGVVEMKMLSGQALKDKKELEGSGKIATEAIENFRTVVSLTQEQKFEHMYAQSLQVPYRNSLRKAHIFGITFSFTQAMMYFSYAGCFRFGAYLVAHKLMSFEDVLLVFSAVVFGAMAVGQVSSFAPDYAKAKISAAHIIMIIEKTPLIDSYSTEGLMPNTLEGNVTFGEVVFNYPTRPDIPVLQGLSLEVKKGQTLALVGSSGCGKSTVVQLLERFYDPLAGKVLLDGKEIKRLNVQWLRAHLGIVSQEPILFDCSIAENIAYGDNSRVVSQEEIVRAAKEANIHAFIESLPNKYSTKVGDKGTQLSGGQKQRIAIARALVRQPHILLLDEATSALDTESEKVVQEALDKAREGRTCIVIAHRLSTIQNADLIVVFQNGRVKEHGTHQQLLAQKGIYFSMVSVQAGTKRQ
Briefly: MDCK-MDR1 Pgp assessment. The format is in vitro ADME. The following applies: dog, MDCK-MDR1 cells, 37° C., read-out: Pgp Efflux Ratio (Pexact). The protocol:
Efflux transport mediated by P-glycoprotein (Pgp) was assessed by MDCK-MDR1 cells. The final concentrations of test compounds and control compound were at 1 μM. The multi-well insert plate was incubated at 37° C. for 2 hours. In order to reliably measure passive permeability coefficients, Pexact was reported, which automatically corrects for loss of compound.

SMILES strings stand for the structures.

What is called IC50 is the point on the concentration scale where inhibition reaches its midpoint. As to `Cc1cc(N)nc(-c2c(F)c3c4c(cc(OCC5(CN6CCOC[C@H]6C)CC5)nc4c2F)N2C[C@H]4CC[C@H](N4)[C@H]2[C@H](C)O3)c1C(F)(F)F` [Example 613a], the IC50 in the series on PANC-1 pERK (Homo sapiens, PANC-1, 3 h) is 111 nM.
With `C#Cc1c(F)ccc2cccc(-c3nc4c5c(cc(OC[C@@]67CCCN6CC(=C)C7)nc5c3F)N3C[C@H]5CC[C@H](N5)[C@H]3CO4)c12` [Example 78, (5aS,6S,9R)-2-(8-ethynyl-7-fluoronaphthalen-1-yl)-1-fluoro-13-(((S)-2-methylenetetrahydro-1H-pyrrolizin-7a (5H)-yl)methoxy)-5a,6,7,8,9,10-hexahydro-5H-6,9-epiminoazepino[2′,1′: 3,4][1,4]oxazepino[5,6,7-de][1,6]naphthyridine], the IC50 with PANC-1 pERK (Homo sapiens, PANC-1, 3 h) worked out at 464 nM.
With `CCc1c(F)ccc2cc(O)cc(-c3nc4c5c(cc(OC[C@@]67CCCN6C/C(=C\F)C7)nc5c3F)N3C[C@H]5CC[C@H](N5)[C@H]3[C@H](C)O4)c12` [Example 601], the IC50 in the series with PANC-1 pERK (Homo sapiens, PANC-1, 3 h) came out at 8.2 nM.
Same read-out and setting: the result for `CCc1c(F)ccc2cc(O)cc(-c3nc4c5c(cc(OC[C@@]67CCCN6C[C@H](F)C7)nc5c3F)N3C[C@H]5CC[C@H](N5)[C@H]3[C@H](C)O4)c12` [Example 568, 5-ethyl-6-fluoro-4-((5S,5aS,6S,9R)-1-fluoro-13-(((2R,7aS)-2-fluorotetrahydro-1H-pyrrolizin-7a (5H)-yl)methoxy)-5-methyl-5a,6,7,8,9,10-hexahydro-5H-6,9-epiminoazepino[2′,1′: 3,4][1,4]oxazepino[5,6,7-de][1,6]naphthyridin-2-yl)naphthalen-2-ol] reads 5.6 nM; that for `C#Cc1c(F)ccc2cccc(-c3nc4c5c(cc(OC[C@]67CC(=C)CN6C[C@@H](F)C7)nc5c3F)N3C[C@H]5CC[C@H](N5)[C@H]3[C@H](C)O4)c12` [Example 607], 198 nM; that for `C#Cc1c(F)ccc2cc(O)cc(-c3nc4c5c(cc(OC[C@@]67CCCN6C[C@H](F)C7)nc5c3F)N3C[C@@]5(C)CC[C@H](N5)[C@H]3[C@H](C)O4)c12` [Example 614], 8.1 nM.
For the compound `C#Cc1c(F)ccc2cc(O)cc(-c3c(F)c4c5c(cc(OC[C@@]67CCCN6C[C@H](F)C7)nc5c3F)N3C[C@H]5CC[C@H](N5)[C@H]3[C@H](C)O4)c12` (single isomer, unassigned) [Example 577a], the IC50 in the series with PANC-1 pERK turned out to be 0.68 nM.
Take `Cc1cc(N)nc(-c2nc3c4c(cc(OC[C@@]56CCCN5C[C@H](F)C6)nc4c2F)N2C[C@H]4CC[C@H](N4)[C@H]2[C@H](C)O3)c1C(F)(F)F` [Example 574]: the 50% inhibitory concentration (IC50) in the series with PANC-1 pERK (Homo sapiens, PANC-1, 3 h) was 33 nM.
On to `C#Cc1c(F)ccc2cc(O)cc(-c3nc4c5c(cc(OCC67CCCN6CC(=C)C7)nc5c3F)N3C[C@H]5CC[C@H](N5)[C@H]3[C@H](C)O4)c12` (some centres unmarked) [Example 566], for which, in the series with PANC-1 pERK (Homo sapiens, PANC-1, 3 h), the IC50 was found to be 2.9 nM. Further, the efflux ratio at 2 h, 1 μM on P-glycoprotein (Pgp) is 13.
For the compound `C#Cc1c(F)ccc2cccc(-c3nc4c5c(cc(OCC6(CN7CCOC[C@H]7C)CC6)nc5c3F)N3C[C@H]5CC[C@H](N5)[C@H]3[C@H](C)O4)c12` [Example 611], in the series with PANC-1 pERK (Homo sapiens, PANC-1, 3 h), the IC50 came to 14 nM.
Still for that read-out and setting: with `C=C1CN2CCC[C@@]2(COc2cc3c4c(nc(-c5cccc6ccc(F)c(CC)c56)c(F)c4n2)O[C@@H](C)[C@@H]2[C@@H]4CC[C@H](CN32)N4)C1` [Example 606] the figure was 246 nM; with `C#Cc1c(F)ccc2cccc(-c3nc4c5c(cc(OC[C@@]67CC(=C)CN6C[C@H](OC)C7)nc5c3F)N3C[C@H]5CC[C@H](N5)[C@H]3[C@H](C)O4)c12` [Example 609], 9.6 nM; with `C#Cc1c(F)ccc2cc(O)cc(-c3nc4c5c(cc(OCC67CC(=C)CN6CC(=C)C7)nc5c3F)N3C[C@H]5CC[C@H](N5)[C@H]3[C@H](C)O4)c12` [Example 567], 0.95 nM.
As for `CCc1c(F)ccc2cc(O)cc(-c3nc4c5c(cc(OC[C@@]67CCCN6C[C@H](F)C7)nc5c3F)N3C[C@@]5(C)CC[C@H](N5)[C@H]3[C@H](C)O4)c12` [Example 615], the IC50 with PANC-1 pERK (Homo sapiens, PANC-1, 3 h) was 25 nM.
For `C#Cc1c(F)ccc2cc(O)cc(-c3nc4c5c(cc(OC[C@@]67CCCN6C[C@H](F)C7)nc5c3F)N3C[C@H]5CC[C@H](N5)[C@H]3[C@H](C)O4)c12` [Example 565, 5-ethynyl-6-fluoro-4-((5S,5aS,6S,9R)-1-fluoro-13-(((2R,7aS)-2-fluorotetrahydro-1H-pyrrolizin-7a (5H)-yl)methoxy)-5-methyl-5a,6,7,8,9,10-hexahydro-5H-6,9-epiminoazepino[2′,1′: 3,4][1,4]oxazepino[5,6,7-de][1,6]naphthyridin-2-yl)naphthalen-2-ol], the IC50 in the series on PANC-1 pERK (Homo sapiens, PANC-1, 3 h) amounted to 1.2 nM. At P-glycoprotein (Pgp), the efflux ratio at 2 h, 1 μM was 5.25.
Turning to `C#Cc1c(F)ccc2cccc(-c3nc4c5c(cc(OC[C@@]67CCCN6C/C(=C/F)C7)nc5c3F)N3C[C@H]5CC[C@H](N5)[C@H]3[C@H](C)O4)c12` [Example 603], the IC50 in the series on PANC-1 pERK (Homo sapiens, PANC-1, 3 h) came out at 48 nM.
As for `C#Cc1c(F)ccc2cc(O)cc(-c3nc4c5c(cc(OC[C@@]67CCCN6C/C(=C\F)C7)nc5c3F)N3C[C@H]5CC[C@H](N5)[C@H]3[C@H](C)O4)c12` [Example 602], in the series with PANC-1 pERK (Homo sapiens, PANC-1, 3 h), the IC50 was 1.5 nM.
On to `C=C1CN2CC(=C)CC2(COc2cc3c4c(nc(-c5cc(O)cc6ccc(F)c(CC)c56)c(F)c4n2)O[C@@H](C)[C@@H]2[C@@H]4CC[C@H](CN32)N4)C1` [Example 570], for which the IC50 in the series on PANC-1 pERK (Homo sapiens, PANC-1, 3 h) was determined as 76 nM.
Still for that read-out and setting: with `C#Cc1c(F)ccc2cccc(-c3nc4c5c(cc(OC[C@@]67CCCN6C[C@H](F)C7)nc5c3F)N3C[C@H]5CC[C@H](N5)[C@H]3[C@H](C)O4)c12` [Example 571] the figure was 17 nM.
For `C#Cc1cccc2cccc(-c3nc4c5c(cc(OC[C@@]67CCCN6CC(=C)C7)nc5c3F)N3C[C@H]5CC[C@H](N5)[C@H]3[C@H](C)O4)c12` [Example 605], the IC50 in the series with PANC-1 pERK was found to be 25 nM.
With `C=C1CN2CCC[C@@]2(COc2cc3c4c(nc(-c5cc(O)cc6ccc(F)c(CC)c56)c(F)c4n2)OC[C@@H]2[C@@H]4CC[C@H](CN32)N4)C1` [Example 40, 5-ethyl-6-fluoro-4-((5aS,6S,9R)-1-fluoro-13-(((S)-2-methylenetetrahydro-1H-pyrrolizin-7a (5H)-yl)methoxy)-5a,6,7,8,9,10-hexahydro-5H-6,9-epiminoazepino[2′,1′: 3,4][1,4]oxazepino[5,6,7-de][1,6]naphthyridin-2-yl)naphthalen-2-ol], the IC50 in the series on PANC-1 pERK (Homo sapiens, PANC-1, 3 h) turned out to be 16 nM.
For the compound `C=C1CN2CCCC2(COc2cc3c4c(nc(-c5cc(O)cc6ccc(F)c(CC)c56)c(F)c4n2)O[C@@H](C)[C@@H]2[C@@H]4CC[C@H](CN32)N4)C1` (some centres unmarked) [Example 569], the IC50 in the series with PANC-1 pERK (Homo sapiens, PANC-1, 3 h) was 1.7 nM.
Regarding `C#Cc1c(F)ccc2cc(O)cc(-c3c(F)c4c5c(cc(OC[C@@]67CCCN6C[C@H](F)C7)nc5c3F)N3C[C@H]5CC[C@H](N5)[C@H]3[C@H](C)O4)c12` (single isomer, unassigned) [Example 577b], the IC50 with PANC-1 pERK was 23.1 nM.
Consider `C#Cc1c(F)ccc2cc(O)cc(-c3nc4c5c(cc(OC[C@@]67CCCN6CC(=C)C7)nc5c3F)N3C[C@H]5CC[C@H](N5)[C@H]3CO4)c12` [Example 2, 5-ethynyl-6-fluoro-4-((5aS,6S,9R)-1-fluoro-13-(((S)-2-methylenetetrahydro-1H-pyrrolizin-7a (5H)-yl)methoxy)-5a,6,7,8,9,10-hexahydro-5H-6,9-epiminoazepino[2′,1′: 3,4][1,4]oxazepino[5,6,7-de][1,6]naphthyridin-2-yl)naphthalen-2-ol], for which, in the series with PANC-1 pERK (Homo sapiens, PANC-1, 3 h), the IC50 was determined as 14 nM. Further, the efflux ratio at 2 h, 1 μM at P-glycoprotein (Pgp) was 5.37.
`C#Cc1c(F)ccc2cc(O)cc(-c3nc4c5c(cc(OCC67CC(=C)CN6CC(=C)C7)nc5c3F)N3C[C@H]5CC[C@H](N5)[C@H]3CO4)c12` [Example 4, 4-((5aS,6S,9R)-13-((2,6-dimethylenetetrahydro-1H-pyrrolizin-7a (5H)-yl)methoxy)-1-fluoro-5a,6,7,8,9,10-hexahydro-5H-6,9-epiminoazepino[2′,1′: 3,4][1,4]oxazepino[5,6,7-de][1,6]naphthyridin-2-yl)-5-ethynyl-6-fluoronaphthalen-2-ol]: the concentration for half-maximal inhibition (IC50) in the series on PANC-1 pERK (Homo sapiens, PANC-1, 3 h) came out at 34 nM.
Same read-out and setting: the result for `C#Cc1c(F)ccc2cccc(-c3nc4c5c(cc(OC[C@@]67CC(=C)CN6C[C@H](F)C7)nc5c3F)N3C[C@H]5CC[C@H](N5)[C@H]3[C@H](C)O4)c12` [Example 608] reads 251 nM.
On the same count and under the same terms, the result for `C#Cc1c(F)ccc2cccc(-c3nc4c5c(cc(OCC67CCCN6CC(=C)C7)nc5c3F)N3C[C@H]5CC[C@H](N5)[C@H]3[C@H](C)O4)c12` (some centres unmarked) [Example 572] reads 14 nM.
For the compound `C=C1CN2CC(=C)CC2(COc2cc3c4c(nc(-c5cc(O)cc6ccc(F)c(CC)c56)c(F)c4n2)OC[C@@H]2[C@@H]4CC[C@H](CN32)N4)C1` [compound 42], the IC50 in the series with PANC-1 pERK turned out to be 169 nM.
Regarding `C#Cc1c(F)ccc2cccc(-c3nc4c5c(cc(OC[C@@]67CCCN6CC6(CC6(F)F)C7)nc5c3F)N3C[C@H]5CC[C@H](N5)[C@H]3[C@H](C)O4)c12` (some centres unmarked) [Example 604], the IC50 with PANC-1 pERK (Homo sapiens, PANC-1, 3 h) came to 184 nM.

The record behind these values is US20260263479A1, “KRAS G12D INHIBITORS AND USES THEREOF” (SUZHOU ZANRONG PHARMA LIMITED, priority 2023, published 2026).
